The values below come from ChEMBL document CHEMBL1126426, “Nucleotidic prodrugs of anti-HIV dideoxynucleosides” (Bioorg Med Chem Lett, 1992).

A short description of data set [1]: The compound was evaluated for its stability in RPMI containing 10 % of heat-inactivated FCS. It counts as physicochemical. As to conditions: cattle, RPMI culture medium with 10% heat-inactivated FCS.
Data set [2] is described as follows: Kinetic constant in RPMI containing 10 % of FCS. As to conditions: cattle. Format: ADME.
The next data set has as its system CCRF-CEM. Nature of the data set: The compound was evaluated for the activity on HIV infected CEM cells. It counts as functional. Conditions: Homo sapiens, read-out: ED50 (the source's name).
A short description of data set [3]: The compound was evaluated for its stability in CEM extract; S - Stable. It counts as physicochemical. As to conditions: human.
The nature of data set [4]: The compound was evaluated for its stability in RPMI containing 10 % of FCS. Format: physicochemical. Conditions: cattle, RPMI culture medium with 10% FCS.
Data set [5] is described as follows: The compound was evaluated for its stability in RPMI at pH of 7.2 dose 10 x 10e-3; S - Stable. It counts as physicochemical. As to conditions: pH 7.2.
Data set [6] in a line: Kinetic constant in RPMI containing 10 % of heat-inactivated FCS. Format: ADME. As to conditions: cattle.

A word on the half-life: it is how long it takes for the measured level to halve. Read a low half-life as fast loss.

Regarding `Nc1ccn(C2CCC(COP(=O)(O)OC[C@@H]3CC[C@H](n4ccc(N)nc4=O)O3)O2)c(=O)n1` (some centres undefined), the half-life in data set [1] was 48 h; in data set [4] it was 22 h. For the same compound, the figures for the k in data set [2] and in data set [6] were 0.00052 min⁻¹ and 0.00024 min⁻¹, respectively. In addition, in the data set with CCRF-CEM, the EC50 stood at 50 nM. Further, the T1/2 entry in data set [3] and in data set [5] was “Stable” each time.

For `COP(=O)(OCC1CCC(n2ccc(N)nc2=O)O1)OC[C@@H]1CC[C@H](n2ccc(N)nc2=O)O1` (some centres undefined), in the data set on CCRF-CEM, the EC50 was 500 nM.

For the compound `Nc1ccn([C@H]2CC[C@@H](CO)O2)c(=O)n1` [ZALCITABINE], in the data set with CCRF-CEM, the EC50 turned out to be 100 nM.
